Measured values from PMC6154005, “From Cell to Beak: In-Vitro and In-Vivo Characterization of Chicken Bitter Taste Thresholds” (Molecules : A Journal of Synthetic Chemistry and Natural …, 2017).
Structures can show the parent of a compound that is named as a salt.

Key:
Experiment in all cases: calcium imaging (Fluo4-AM, FLIPR) in transfected cells
Format in all cases: cell-based
Conditions in all cases: agonist; HEK 293T-Galpha16gust44 cells; 2.5 mM probenecid at dye loading; lowest activating concentration, no EC50
ggTas2r7 = molecular target: T1, ggTas2r7 (Gallus gallus, UniProt Q2AB81)
T1 construct: gene TAS2R7; cDNA in pcDNA5FRT, transiently expressed in HEK 293T-Galpha16gust44 cells
T1 sequence (Q2AB81 1-321): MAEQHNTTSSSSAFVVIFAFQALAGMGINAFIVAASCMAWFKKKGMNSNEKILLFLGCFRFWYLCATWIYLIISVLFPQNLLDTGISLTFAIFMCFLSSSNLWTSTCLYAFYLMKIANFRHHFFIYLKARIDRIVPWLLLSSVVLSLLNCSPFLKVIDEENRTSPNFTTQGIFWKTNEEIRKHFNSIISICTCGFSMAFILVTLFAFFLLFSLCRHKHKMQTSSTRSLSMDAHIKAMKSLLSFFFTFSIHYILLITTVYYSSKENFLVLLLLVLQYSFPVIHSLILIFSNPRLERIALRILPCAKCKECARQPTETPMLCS

ggTas2r1 = molecular target: T2, ggTas2r1 (Gallus gallus, UniProt Q2AB83)
T2 construct: gene TAS2R40; cDNA in pcDNA5FRT, transiently expressed in HEK 293T-Galpha16gust44 cells
T2 sequence (Q2AB83 1-311): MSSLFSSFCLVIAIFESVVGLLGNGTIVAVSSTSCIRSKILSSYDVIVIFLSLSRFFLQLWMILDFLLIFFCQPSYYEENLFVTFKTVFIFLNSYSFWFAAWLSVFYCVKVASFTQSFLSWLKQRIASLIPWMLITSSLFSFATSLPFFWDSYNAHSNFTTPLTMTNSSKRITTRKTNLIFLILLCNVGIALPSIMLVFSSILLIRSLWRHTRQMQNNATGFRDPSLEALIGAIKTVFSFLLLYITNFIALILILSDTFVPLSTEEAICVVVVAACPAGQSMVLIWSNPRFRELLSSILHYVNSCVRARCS

ggTas2r2 = molecular target: T3, ggTas2r2 (Gallus gallus, UniProt A0A1D5PXM6)
T3 construct: gene LOC101747503; cDNA in pcDNA5FRT, transiently expressed in HEK 293T-Galpha16gust44 cells
T3 sequence (A0A1D5PXM6 1-311): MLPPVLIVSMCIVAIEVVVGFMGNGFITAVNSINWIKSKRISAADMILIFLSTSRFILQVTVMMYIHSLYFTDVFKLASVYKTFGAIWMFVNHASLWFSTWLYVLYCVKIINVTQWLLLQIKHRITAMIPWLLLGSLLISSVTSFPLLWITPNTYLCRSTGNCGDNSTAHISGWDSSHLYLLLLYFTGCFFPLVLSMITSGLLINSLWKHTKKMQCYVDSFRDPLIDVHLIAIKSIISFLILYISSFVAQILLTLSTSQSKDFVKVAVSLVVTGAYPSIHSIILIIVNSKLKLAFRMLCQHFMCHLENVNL

Row | SMILES | Threshold Concentrations (mM) / In-Vitro (ggTas2r7) [mM] | Threshold Concentrations (mM) / In-Vitro (ggTas2r1) [mM] | Threshold Concentrations (mM) / In-Vitro (ggTas2r2) [mM]
1 | Oc1cc(O)c2c(c1)O[C@H](c1ccc(O)c(O)c1)[C@@H](O)C2 [(+)-catechin] | 0.3 |  | 
2 | C=C[C@H]1CN2CC[C@H]1C[C@H]2[C@H](O)c1ccnc2ccc(OC)cc12 [quinine hydrochloride] | 0.01 | 0.01 | 0.01
